Results on 38 compounds are retold here after patent publication US6881741B2 (ViroChem Pharma Inc., priority 2001, dated 2005).

The target in the experiment is recombinant HCV NS5B (HCV RNA-dependent RNA polymerase) (Hepatitis C virus genotype 1b, UniProt P26663). Kind of experiment: biochemical.
Setting [1] is: HCV polymerase activity, list of compounds of Example 27, read-out: IC50 (polymerase activity).
[2] abbreviates: related polymerase activity (Example 27 list), read-out: IC50.

Broadly, the pIC50 is the negative decadic logarithm of the IC50, by convention in mol/L.

pIC50: −log10 of the molar value. Read-outs that look alike come from different tables or passages of the source.

Chain of recombinant HCV NS5B (HCV RNA-dependent RNA polymerase) (P26663 2420-3010 limits assumed): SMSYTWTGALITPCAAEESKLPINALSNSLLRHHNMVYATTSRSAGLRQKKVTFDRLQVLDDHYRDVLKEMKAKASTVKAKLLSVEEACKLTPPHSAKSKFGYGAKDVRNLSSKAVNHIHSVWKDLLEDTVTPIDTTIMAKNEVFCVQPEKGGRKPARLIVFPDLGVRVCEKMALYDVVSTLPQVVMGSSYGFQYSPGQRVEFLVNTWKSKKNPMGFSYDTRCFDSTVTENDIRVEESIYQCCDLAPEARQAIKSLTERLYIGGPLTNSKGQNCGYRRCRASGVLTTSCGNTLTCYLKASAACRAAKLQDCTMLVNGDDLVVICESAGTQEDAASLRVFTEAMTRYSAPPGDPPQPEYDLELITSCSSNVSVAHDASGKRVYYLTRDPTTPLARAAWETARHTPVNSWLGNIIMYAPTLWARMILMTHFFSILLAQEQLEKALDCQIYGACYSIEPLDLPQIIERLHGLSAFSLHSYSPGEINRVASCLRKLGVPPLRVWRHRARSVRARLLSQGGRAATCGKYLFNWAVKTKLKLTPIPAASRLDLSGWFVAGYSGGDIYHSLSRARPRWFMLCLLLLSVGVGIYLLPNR

In the case of `CC(=O)N(Cc1ccccc1C)c1cc(-c2ccccc2)sc1C(=O)O` [Compound 426, 3-[ACETYL-(2-METHYL-BENZYL)-AMINO]- 5-PHENYL-THIOPHENE-2-CARBOXYLIC ACID], the pIC50 under setting [1] is under 4.70.
On to `Cc1ccccc1S(=O)(=O)Nc1cc(-c2ccc(Cl)s2)sc1C(=O)O` [Compound 57, 5′-CHLORO-4-(TOLUENE-2-SULFONYLAMINO)-[2,2′]BITHIOPHENYL-5-CARBOXYLIC ACID], for which the pIC50 under setting [2] is over 5.30.
Take `Cc1ccccc1S(=O)(=O)Nc1cc(-c2cccc(F)c2)sc1C(=O)O` [Compound 67, 5-(3-FLUORO-PHENYL)-3-(TOLUENE-2-SULFONYLAMINO)-THIOPHENE-2-CARBOXYLIC ACID]: the pIC50 under setting [2] was over 5.30.
Consider `Cc1ccccc1S(=O)(=O)Nc1cc(-c2cccs2)sc1C(=O)O` [Compound 56, 4-(TOLUENE-2-SULFONYLAMINO)-[2,2′]BITHIOPHENYL-5-CARBOXYLIC ACID], for which the pIC50 under setting [2] was over 5.30.
On the same count and under the same terms, the figure for `Cc1ccc(C(=O)N(C)c2cc(-c3cccc(O)c3)sc2C(=O)O)cc1` [Compound 273, 5-(3-HYDROXY-PHENYL)-3-[METHYL-(4-METHYL-BENZOYL)-AMINO]-THIOPHENE-2-CARBOXYLIC ACID] is over 5.30; for `C=CCN(C(=O)Cc1ccc2ccccc2c1)c1cc(-c2ccccc2)sc1C(=O)O` [Compound 347, 3-[ALLYL-(2-NAPHTHALEN-2-YL-ACETYL)- AMINO]-5-PHENYL-THIOPHENE-2- CARBOXYLIC ACID] it is under 4.70.
As to `CC(=O)c1cccc(-c2cc(N(C)C(=O)c3ccc(C)cc3)c(C(=O)O)s2)c1` [Compound 272, 5-(3-ACETYL-PHENYL)-3-[METHYL-(4-METHYL-BENZOYL)-AMINO]-THIOPHENE-2-CARBOXYLIC ACID], the pIC50 under setting [2] was 4.70 to 5.30.
Take `CCCC(=O)N(Cc1ccc(C)cc1)c1cc(-c2ccccc2)sc1C(=O)O` [Compound 470, 3-[BUTYRYL-(4-METHYL-BENZYL)- AMINO]-5-PHENYL-THIOPHENE-2- CARBOXYLIC ACID]: the pIC50 under setting [1] was 4.70 to 5.30.
Take `Cc1ccc(C(=O)N(C)c2cc(-c3ccc(F)cc3F)sc2C(=O)O)cc1` [Compound 214, 5-(2,4-DIFLUORO-PHENYL)-3-[METHYL-(4-METHYL-BENZOYL)-AMINO]-THIOPHENE-2-CARBOXYLIC ACID]: the pIC50 under setting [2] was 4.70 to 5.30.
Take `CCN(C(=O)CCC(C)C)c1cc(-c2ccccc2)sc1C(=O)O` [Compound 494, 3-[ETHYL-(4-METHYL-PENTANOYL)- AMINO]-5-PHENYL-THIOPHENE-2- CARBOXYLIC ACID]: the pIC50 under setting [1] is over 5.30.
Consider `O=C(O)c1sc(-c2ccccc2)cc1NS(=O)(=O)c1ccccc1CCl` [Compound 189, 3-(2-CHLOROMETHYL-BENZENESULFONYLAMINO)-5-PHENYL-THIOPHENE-2-CARBOXYLIC ACID], for which, under setting [2], the pIC50 was 4.70 to 5.30.
As to `CC(C)N(c1cc(-c2ccccc2)sc1C(=O)O)C(=O)[C@]1(C)CC[C@@H](C)CC1` [Compound 500, 3-[(1,4-DIMETHYL- CYCLOHEXANECARBONYL)-ISOPROPYL- AMINO]-5-PHENYL-THIOPHENE-2- CARBOXYLIC ACID], under setting [1], the pIC50 was over 5.30.
Take `CN(C(=O)c1cccs1)c1cc(-c2ccccc2)sc1C(=O)O` [Compound 75, 3-(METHYL-(THIOPHENE-2-CARBONYL)-AMINO]-5-PHENYL-THIOPHENE-2-CARBOXYLIC ACID]: the pIC50 under setting [2] is 4.70 to 5.30.
The same measure, in the same setting: next, `O=C(O)c1sc(-c2ccccc2)cc1NS(=O)(=O)c1cccc([N+](=O)[O-])c1` [Compound 147, 3-(3-NITRO-BENZENESULFONYLAMINO)-5-PHENYL-THIOPHENE-2-CARBOXYLIC ACID]: over 5.30; `COc1ccc(-c2cc(NS(=O)(=O)c3ccccc3C)c(C(=O)O)s2)cc1` [Compound 122, 5-(4-METHOXY-PHENYL)-3-(TOLUENE-2-SULFONYLAMINO)-THIOPHENE-2-CARBOXYLIC ACID]: over 5.30.
Same read-out and setting: next, `Cc1ccccc1S(=O)(=O)Nc1cc(-c2sccc2C)sc1C(=O)O` [Compound 105, 3′-METHYL-4-(TOLUENE-2-SULFONYLAMINO)-[2,2′]BITHIOPHENYL-5-CARBOXYLIC ACID]: 4.70 to 5.30.
On the same count and under the same terms, next, `O=C(O)c1sc(-c2ccccc2)cc1NS(=O)(=O)c1c(F)cc(F)cc1F` [Compound 151, 5-PHENYL-3-(2,4,6-TRIFLUORO-BENZENESULFONYLAMINO)-THIOPHENE-2-CARBOXYLIC ACID]: over 5.30; `CC(C)N(C(=O)c1ccc(Cl)cc1Cl)c1cc(-c2ccc(C(=O)O)cc2)sc1C(=O)O` [Compound 375, 5-(4-CARBOXY-PHENYL)-3-[(2,4- DICHLORO-BENZOYL)-ISOPROPYL- AMINO]-THIOPHENE-2-CARBOXYLIC ACID]: over 5.30.
On to `CN(C(=O)c1ccc(C(F)(F)F)c(F)c1F)c1cc(-c2ccccc2)sc1C(=O)O` [Compound 278, 3-[(2,3-DIFLUORO-4-TRIFLUOROMETHYL-BENZOYL)-METHYL-AMINO]-5-PHENYL-THIOPHENE-2-CARBOXYLIC ACID], for which, under setting [2], the pIC50 was 4.70 to 5.30.
Same read-out and setting: the figure for `O=C(O)c1sc(-c2ccccc2)cc1NS(=O)(=O)c1ccc(F)c(C(F)(F)F)c1` [Compound 145, 3-(4-FLUORO-3-TRIFLUOROMETHYL-BENZENESULFONYLAMINO)-5-PHENYL-THIOPHENE-2-CARBOXYLIC ACID] is 4.70 to 5.30; for `Cc1ccc(C(=O)N(Cc2cccc(C(C)(C)C)c2)c2cc(-c3ccccc3)sc2C(=O)O)cc1` [Compound 334, 3-[(3-TERT-BUTYL-BENZYL)-(4-METHYL- BENZOYL)-AMINO]-5-PHENYL- THIOPHENE-2-CARBOXYLIC ACID] it is over 5.30; for `Cc1ccc(C(=O)N(c2cc(-c3ccccc3)sc2C(=O)O)C2CCN(C(=O)OC(C)(C)C)CC2)cc1` [Compound 364, 4-[(2-CARBOXY-5-PHENYL-THIOPHEN-3- YL)-(4-METHYL-BENZOYL)-AMINO]- PIPERIDINE-1-CARBOXYLIC ACID #TERT!-BUTYL ESTER] it is over 5.30.
Same read-out and setting: next, `O=C(O)c1sc(-c2ccccc2)cc1NC(=O)N1CCN(c2cccc(C(F)(F)F)c2)CC1` [Compound 156, 5-PHENYL-3-{[4-(3-TRIFLUOROMETHYL-PHENYL)-PIPERAZINE-1-CARBONYL]-AMIN}-THIOPHENE-2-CARBOXYLIC ACID]: 4.70 to 5.30.
Consider `Cc1ccc(C)c(S(=O)(=O)Nc2cc(-c3ccc([N+](=O)[O-])cc3)sc2C(=O)O)c1` [Compound 100, 3-(2,5-DIMETHYL-BENZENESULFONYLAMINO)-5-(4-NITRO-PHENYL)-THIOPHENE-2-CARBOXYLIC ACID], for which the pIC50 under setting [2] is over 5.30.
As to `CC(=O)N(Cc1ccc(C(F)(F)F)cc1)c1cc(-c2ccccc2)sc1C(=O)O` [Compound 464, 3-[ACETYL-(4-TRIFLUOROMETHYL- BENZYL)-AMINO]-5-PHENYL-THIOPHENE- 2-CARBOXYLIC ACID], under setting [1], the pIC50 is 4.70 to 5.30.
For the compound `O=C(O)c1sc(-c2ccccc2)cc1NS(=O)(=O)c1ccc(C(F)(F)F)cc1` [Compound 52, 5-PHENYL-3-(4-TRIFLUOROMETHYL-BENZENESULFONYLAMINO)-THIOPHENE-2-CARBOXYLIC ACID], the pIC50 under setting [2] is over 5.30.
The same measure, in the same setting: next, `Cc1ccccc1S(=O)(=O)Nc1cc(-c2ccc(Cl)cc2Cl)sc1C(=O)O` [Compound 58, 5-(2,4-DICHLORO-PHENYL)-3-(TOLUENE-2-SULFONYLAMINO)-THIOPHENE-2-CARBOXYLIC ACID]: 4.70 to 5.30; `O=C(O)c1sc(-c2ccccc2)cc1N(Cc1ccc(-c2cccc(C(F)(F)F)c2)o1)C(=O)c1ccc(Cl)cc1Cl` [Compound 4, 3-{(2,4-DICHLORO-BENZOYL)-[5-(3-TRIFLUOROMETHYL-PHENYL)-FURAN-2-YLMETHYL]-AMINO}-5-PHENYL-THIOPHENE-2-CARBOXYLIC ACID]: over 5.30.
Take `CC(C)N(C(=O)c1ccc(Cl)cc1Cl)c1cc(-c2ccc3[nH]ccc3c2)sc1C(=O)O` [Compound 488, 3-[(2,4-DICHLORO-BENZOYL)- ISOPROPYL-AMINO]-5-(1H-INDOL-5-YL)- THIOPHENE-2-CARBOXYLIC ACID]: under setting [1], the pIC50 was over 5.30.
Take `CN(C(=O)c1ccc(Cl)c(Cl)c1)c1cc(-c2ccccc2)sc1C(=O)O` [Compound 253, 3-[(3,4-DICHLORO-BENZOYL)-METHYL-AMINO]-5-PHENYL-THIOPHENE-2-CARBOXYLIC ACID]: under setting [2], the negative-log IC50 (pIC50) is 4.70 to 5.30.
Same read-out and setting: next, `Cc1ccc(C(=O)N(C)c2cc(-c3ccc(Cl)cc3)sc2C(=O)O)cc1` [Compound 192, 5-(4-CHLORO-PHENYL)-3-[METHYL-(4-METHYL-BENZOYL)-AMINO]-THIOPHENE-2-CARBOXYLIC ACID]: 4.70 to 5.30.
Turning to `Cc1ccccc1S(=O)(=O)Nc1cc(Br)sc1C(=O)O` [Compound 552, 5-BROMO-3-(TOLUENE-2- SULFONYLAMINO)-THIOPHENE-2- CARBOXYLIC ACID], the pIC50 under setting [1] was 4.70 to 5.30.
Consider `C=CCCC(=O)N(C)c1cc(-c2ccccc2)sc1C(=O)O` [Compound 386, 3-(METHYL-PENT-4-ENOYL-AMINO)-5- PHENYL-THIOPHENE-2-CARBOXYLIC ACID], for which the pIC50 under setting [2] is 4.70 to 5.30.
As for `CC(C)N(C(=O)c1ccc(F)cc1)c1cc(-c2ccccc2)sc1C(=O)O` [Compound 226, 3-[(4-FLUORO-BENZOYL)-ISOPROPYL-AMINO]-5-PHENYL-THIOPHENE-2-CARBOXYLIC ACID], under setting [2], the pIC50 was 4.70 to 5.30.
The same measure, in the same setting: the figure for `Cc1ccc(C(=O)N(C)c2cc(-c3ccc(N)cc3)sc2C(=O)O)cc1` [Compound 200, 5-(4-AMINO-PHENYL)-3-[METHYL-(4-METHYL-BENZOYL)-AMINO]-THIOPHENE-2-CARBOXYLIC ACID] is 4.70 to 5.30; for `CCCC(=O)N(C)c1cc(-c2ccccc2)sc1C(=O)O` [Compound 385, 3-(BUTYRYL-METHYL-AMINO)-5-PHENYL- THIOPHENE-2-CARBOXYLIC ACID] it is 4.70 to 5.30.
The same measure, in the same setting: the figure for `CC(C)N(C(=O)c1ccc(Cl)nc1Cl)c1cc(-c2ccccc2)sc1C(=O)O` [Compound 250, 3-[(2,6-DICHLORO-PYRIDINE-3-CARBONYL)-ISOPROPYL-AMINO]-5-PHENYL-THIOPHENE-2-CARBOXYLIC ACID] is 4.70 to 5.30; for `Cc1ccc(C(=O)N(C)c2cc(-c3cccc(F)c3)sc2C(=O)O)cc1` [Compound 213, 5-(3-FLUORO-PHENYL)-3-[METHYL-(4-METHYL-BENZOYL)-AMINO]-THIOPHENE-2-CARBOXYLIC ACID] it is over 5.30.
